In patent publication US12227479B2, “Dihydropyridines for the treatment of cognitive impairment or traumatic brain injury” (Icahn School of Medicine at Mount Sinai, priority 2017, dated 2025):
Values joined by “and” are separate entries in the source; they are usually repeats but may differ in a detail not shown here. Equal values may be shown once. “Also recorded” adds a separate entry of the source. Read-outs that look alike come from different tables or passages of the source. Values belong to the compound of their own block, whether it stands above or below them.

Tests used:
synj1 5′-promoter region = assay: synj1 5′-promoter luciferase assay (GLuc/SEAP dual reporter) in ApoE4 cortical neurons; format: cell-based; settings: for inhibition of synj1 transcription activities: luciferase assay; for IC50: Cortical neurone, ApoE4 cortical neurons, 48 hours treatment, read-out: IC50 (synj1 transcriptional activity, luciferase assay)
Description: The in vitro luciferase assay uses a dual reporter system of Gaussia luciferase (GLuc) and secreted alkaline phosphatase (SEAP) tagged synj1 5′-promoter region. […] (FIG. 2). DMSO-treated conditions were used as controls and results were presented as percentage of the control (±SEM). One-way ANOVA was performed followed by post-hoc multiple comparison tests to determine the significance of differences between drug-treated vs DMSO control. *p<0.05; N=5-17/condition.

synj1 [1] = assay: Western blot of synj1 protein levels in wt cortical neurons; format: cell-based
Description: Results were determined by measuring the synj1 protein levels as a percentage of the control (±SEM). One-way ANOVA was performed followed by post-hoc multiple comparison tests to determine the significance of differences between drug-treated vs DMSO control. **p<0.01; N=4-17/condition. […] DMSO-treated conditions were used as controls and results were presented as percentage of the control (±SEM). […] FIGS. 3A, B and C). […] FIGS. 3A, B and C). […] D) In vitro calcium channel inhibition assays. Results were presented as percentage of inhibition (±SEM). […] One-way ANOVA was performed followed by post-hoc multiple comparison tests to determine the significance of differences between drug-treated vs DMSO control. *p<0.05, **p<0.01, ***p<0.001; N=3/condition except in A) nimodipine-treated conditions with N=20.

Aβ40 [2] = assay: ELISA of Aβ40 levels in wt cortical neuronal culture; format: cell-based; settings: wt cortical neurons
Description: (§1) DMSO-treated conditions were used as controls and results were presented as percentage of the control (±SEM). […] FIGS. 3A, B and C). […] FIGS. 3A, B and C). […] D) In vitro calcium channel inhibition assays. Results were presented as percentage of inhibition (±SEM). […] One-way ANOVA was performed followed by post-hoc multiple comparison tests to determine the significance of differences between drug-treated vs DMSO control. *p<0.05, **p<0.01, ***p<0.001; N=3/condition except in A) nimodipine-treated conditions with N=20.

Aβ42 [3] = assay: ELISA of Aβ42 levels in wt cortical neuronal culture; format: cell-based; settings: 10 μM, wt cortical neurons
Description: as §1

synj1 [4] = assay: Long-term daily IP treatment of AD transgenic mice: cortical brain synj1 levels; format: in vivo; settings: APP/PS1 transgenic mouse, 2.5 mg/kg/day IP for 6 months, compared to Tg vehicle controls
Description: (§2) Data is presented as % of wt control (vehicle-treated) time spent exploring novel objects. N=13-15/group. C) Cortical brain synj1 levels as well as D) PIP2 levels in Tg mice (vehicle-, nimodipine- or Example 9-treated) were compared to vehicle-treated controls (as 100%) in wildtype (wt) mice. N=7-13/group. One-way ANOVA was performed followed by post-hoc multiple comparison tests to determine the significance of differences between pairs of means. *p<0.05, **p<0.01, ***p<0.001, ****p<0.0001.

Aβ40 [5] = assay: Long-term daily IP treatment of AD transgenic mice: brain Aβ40 levels; format: in vivo, mouse; settings: 2.5 mg/kg/day IP for 6 months
Description: (§3) N=5-7/group. […] One-way ANOVA was performed followed by post-hoc multiple comparison tests to determine the significance of differences between drug-treated vs DMSO control. *p<0.05, **p<0.01.

[6] = Brain and blood exposure after PO administration to male CD-1 mice; format: in vivo, mouse; settings: for concentration at 1 h / concentration at 3 h / Kp at 1 h / Kp at 3 h: mouse, PO 30 mg/kg, male CD-1 mice; for Kp at 1 h / Kp at 3 h: brain/blood, read-out: Brain/Blood ratio
in vivo = settings: male, CD-1, mouse
[7] = test system: Ca2+- L type calcium channel (dihydropyridine site); assay: Calcium channel activity, Cerep radioligand displacement (dihydropyridine site, antagonist); format: binding
Description: as §1, with “[table] […] DMSO-treated” for “DMSO-treated”

wt cortical neurons = assay: Observed toxicity in wt cortical neuron cultures; format: cell-based; settings: 10 μM
Aβ42 [8] = assay: Long-term daily IP treatment of AD transgenic mice: brain Aβ42 levels; format: in vivo, mouse; settings: 2.5 mg/kg/day IP for 6 months
Description: as §3

APP/PS1 transgenic mouse = assay: Long-term daily IP treatment of AD transgenic mice: NOR and Y maze behavior tests; format: in vivo; settings: 2.5 mg/kg/day IP for 6 months, vs vehicle Tg mice
Description: as §2

ApoE4 mice = assay: Long-term daily oral treatment of ApoE KI mice: NOR test; format: in vivo, mouse; settings: 3 mg/kg/day oral for 6 months, vs vehicle-treated ApoE4 mice
Description: FIG. 7 Long-term in vivo treatment of Example 9 via daily oral administration at 3 mg/kg/day in ApoE KI mice. […] Data is presented as a percentage of ApoE3 control (vehicle-treated) time spent exploring novel objects. N=12-13/group. Cortical brain B) synj1 levels as well as C) pTau levels in ApoE4 mice (vehicle- or Example 9-treated) were compared to vehicle-treated controls (as 100%) in ApoE3 mice. N=6-9/group. One-way ANOVA was performed followed by post-hoc multiple comparison tests to determine the significance of differences between pairs of means. *p<0.05, **p<0.01.

Aβ40 [9] = assay: Long-term daily oral treatment of ApoE KI mice: brain Aβ40 levels; format: in vivo, mouse; settings: 3 mg/kg/day oral
Description: (§4) FIG. 8 Long-term in vivo treatment of Example 9 via daily oral administration at 3 mg/kg/day in ApoE KI mice. […] N=5-8/group. Vehicle-treated conditions were used as controls and results were presented as percentage of the control (±SEM). One-way ANOVA was performed followed by post-hoc multiple comparison tests to determine the significance of differences between drug-treated vs DMSO control. *p<0.05, ***p<0.001.

Aβ42 [10] = assay: Long-term daily oral treatment of ApoE KI mice: brain Aβ42 levels; format: in vivo, mouse; settings: 3 mg/kg/day oral
Description: as §4

[11] = Blood pharmacokinetics after IV or PO administration to male CD-1 mice
[12] = APP/PS1 transgenic mouse neocortex, vs Tg vehicle
[13] = male, CD-1, mouse, blood, iv, 1 mg/kg
[14] = male, CD-1, mouse, blood, po, 30 mg/kg

IC50 (synj1 5′-promoter region): 3.99 µM | concentration at 1 h ([6]; blood, read-out: Blood conc.): 70 ng/mL | concentration at 3 h ([6]; blood, read-out: Blood conc.): 62 ng/mL | Kp at 1 h [6]: 1.9 | Kp at 3 h [6]: 1 | concentration at 1 h ([6]; brain, read-out: Brain conc.): 136 ng/mL | concentration at 3 h ([6]; brain, read-out: Brain conc.): 62 ng/mL | bioavailability (in vivo): 7% | AUC (in vivo; iv, 1 mg/kg): 187 ng·h/mL | Cmax (in vivo; iv, 1 mg/kg): 341 ng/mL | Vd (in vivo; iv, 1 mg/kg): 3.29 L/kg | clearance (in vivo; iv, 1 mg/kg): 88.8 mL/min/kg | half-life (in vivo; iv, 1 mg/kg): 0.58 h | AUC (in vivo; po, 30 mg/kg): 384 ng·h/mL | Cmax (in vivo; po, 30 mg/kg): 114 ng/mL | half-life (in vivo; po, 30 mg/kg): 7.27 h
SMILES: COCCOC(=O)C1=C(C)NC(C)=C(C(=O)OC(C)C)C1c1cccc([N+](=O)[O-])c1 (racemic) [nimodipine]
inhibition of synj1 transcription activities (synj1 5′-promoter region; 10 μM): Nimodipine at 10 μM achieved a 43.0% inhibition of synj1 | reduction of synj1 protein levels (synj1 [1]; 10 μM): 26.6% | reduction of Aβ40 levels (Aβ40 [2]; 10 μM): 47.0% | reduction of Aβ40 levels (Aβ40 [2]; 10 μM, listed as Nimodipine): synj1 protein levels, a 47% reduction of Aβ40 levels and a | reduction of Aβ42 levels (Aβ42 [3]): 12.1% | reduction of Aβ42 levels (Aβ42 [3]; listed as Nimodipine): 12.1% reduction of Aβ42 levels. Example 9 at 5 μM exhibited a | reduction of synj1 protein levels in brain neocortical regions (synj1 [4]): 75.8% | decrease in soluble Aβ40 levels (Aβ40 [5]; [12]): 24.7%

IC50 (synj1 5′-promoter region): 3.33 µM | calcium channel inhibition ([7]; 1 nM): no calcium channel | calcium channel inhibition ([7]; 0.1 μM): 81.3% | CNS penetrability (in words) ([6]; compared with nimodipine): better than nimodipine | concentration at 1 h ([6]; blood, read-out: Blood conc.): 518 ng/mL | concentration at 3 h ([6]; blood, read-out: Blood conc.): 607 ng/mL | Kp at 1 h [6]: 1.2 | Kp at 3 h [6]: 0.7 | concentration at 1 h ([6]; brain, read-out: Brain conc.): 604 ng/mL | concentration at 3 h ([6]; brain, read-out: Brain conc.): 421 ng/mL | oral bioavailability (in words) ([11]; compared with nimodipine): better than nimodipine | AUC [11, 13]: 189 ng·h/mL | Cmax [11, 13]: 228 ng/mL | Vd [11, 13]: 8.2 L/kg | clearance [11, 13]: 85 mL/min/kg | half-life [11, 13]: 1.68 h | bioavailability ([11]; male, CD-1, mouse, blood, oral, 30 mg/kg): 73% | AUC [11, 14]: 4120 ng·h/mL | Cmax [11, 14]: 1010 ng/mL | half-life [11, 14]: 0.84 h
SMILES: COCCOC(=O)C1=C(C)NC(C)=C(C(=O)OC(C)C)C1c1ccc(C(C)(C)C)cc1 (centres unmarked) [Example 9, 3-isopropyl 5-(2-methoxyethyl) 4-(4-(tert-butyl)phenyl)-2,6-dimethyl-1,4-dihydropyridine-3,5-dicarboxylate]
inhibition of synj1 transcription activities (synj1 5′-promoter region; 3 μM): 44.4% inhibition. | reduction of synj1 protein levels (synj1 [1]; 5 μM): 62.4% and 62.3% | reduction of Aβ40 levels (Aβ40 [2]; 5 μM): 82.6% | calcium channel inhibition compared to nimodipine (in words) ([7]; versus nimodipine): attenuated calcium channel blockade effects; also recorded: Example 9 has attenuated calcium channel inhibition versus | toxicity in cortical neuron culture (wt cortical neurons): observed toxicities | reduction of synj1 protein levels in brain neocortical regions (synj1 [4]): 99.4% | levels of insoluble Aβ42 in Tg animal brains (in words) (Aβ42 [8]; AD transgenic mice): trend of reduction | levels of soluble Aβ42 in Tg animal brains (in words) (Aβ42 [8]; AD transgenic mice): Reduction | decrease in insoluble Aβ42 levels (Aβ42 [8]; [12]): 27.4% | decrease in soluble Aβ42 levels (Aβ42 [8]; [12]): insoluble Aβ42 levels, a 19.3% decrease in soluble Aβ42 levels, | levels of insoluble Aβ40 in Tg animal brains (in words) (Aβ40 [5]; AD transgenic mice): Reduction | decrease in insoluble Aβ40 levels (Aβ40 [5]; [12]): 23.7% | decrease in soluble Aβ40 levels (Aβ40 [5]; [12]): 12% | cognitive function in NOR and Y-maze tests (in words) (APP/PS1 transgenic mouse): cognitive improvements | cognitive function in NOR test (in words) (ApoE4 mice): cognitive improvements | levels of soluble Aβ40 in ApoE4 animal brains (in words) (Aβ40 [9]): reduction | levels of insoluble Aβ42 in ApoE4 animal brains (in words) (Aβ42 [10]): trend of reduction | levels of soluble Aβ42 in ApoE4 animal brains (in words) (Aβ42 [10]): reduction

SMILES: COCCOC(=O)C1=C(C)NC(C)=C(C(=O)OC(C)C)C1c1ccc(OC(F)(F)F)cc1 (centres unmarked) [Example 7]
toxicity in cortical neuron culture (wt cortical neurons): observed toxicities

IC50 (synj1 5′-promoter region): 1.89 µM
SMILES: COCCOC(=O)C1=C(C)NC(C)=C(C(=O)OC(C)C)C1c1ccc(C(F)(F)F)cc1 (centres unmarked) [Example 6, 3-isopropyl 5-(2-methoxyethyl) 2,6-dimethyl-4-(4-(trifluoromethyl)phenyl)-1,4-dihydropyridine-3,5-dicarboxylate]
toxicity in cortical neuron culture (wt cortical neurons): observed toxicities
